Laboratory results from patent US8754071B2 (priority 2011, dated 2014).
Where two headings read alike, the source gives them in different places.

Target: T1, c-kit (Homo sapiens, UniProt P10721)
T1 construct: human Mo7e cells which endogenously express c-kit; endogenous in cells; host or cells: human Mo7e cells (promegakaryocytic leukemia line), stimulated with human recombinant SCF
Assay: Mo7e cell proliferation assay (SCF dependent proliferation)
Format: cell-based
Conditions: human Mo7e cells stimulated with SCF, 48 hours, CellTiter Glo, 1% FBS, read-out: c-kit (Mo7e)
Experimental: Mo7e Cell Proliferation Assay The compounds of Table 1 and Table 2 were tested for inhibition of SCF dependent proliferation using human Mo7e cells which endogenously express c-kit in a 384 well format. […] After 48 hours of incubation at 37° C., cell viability was measured by adding 25 uL of CellTiter Glo (Promega) to the cells and the luminescence was measured by a […] camera (Molecular Devices). […] The IC50 value is given as that concentration of the test compound in question that provoke a response halfway between the baseline and maximum responses.

T1 sequence (P10721 26-976): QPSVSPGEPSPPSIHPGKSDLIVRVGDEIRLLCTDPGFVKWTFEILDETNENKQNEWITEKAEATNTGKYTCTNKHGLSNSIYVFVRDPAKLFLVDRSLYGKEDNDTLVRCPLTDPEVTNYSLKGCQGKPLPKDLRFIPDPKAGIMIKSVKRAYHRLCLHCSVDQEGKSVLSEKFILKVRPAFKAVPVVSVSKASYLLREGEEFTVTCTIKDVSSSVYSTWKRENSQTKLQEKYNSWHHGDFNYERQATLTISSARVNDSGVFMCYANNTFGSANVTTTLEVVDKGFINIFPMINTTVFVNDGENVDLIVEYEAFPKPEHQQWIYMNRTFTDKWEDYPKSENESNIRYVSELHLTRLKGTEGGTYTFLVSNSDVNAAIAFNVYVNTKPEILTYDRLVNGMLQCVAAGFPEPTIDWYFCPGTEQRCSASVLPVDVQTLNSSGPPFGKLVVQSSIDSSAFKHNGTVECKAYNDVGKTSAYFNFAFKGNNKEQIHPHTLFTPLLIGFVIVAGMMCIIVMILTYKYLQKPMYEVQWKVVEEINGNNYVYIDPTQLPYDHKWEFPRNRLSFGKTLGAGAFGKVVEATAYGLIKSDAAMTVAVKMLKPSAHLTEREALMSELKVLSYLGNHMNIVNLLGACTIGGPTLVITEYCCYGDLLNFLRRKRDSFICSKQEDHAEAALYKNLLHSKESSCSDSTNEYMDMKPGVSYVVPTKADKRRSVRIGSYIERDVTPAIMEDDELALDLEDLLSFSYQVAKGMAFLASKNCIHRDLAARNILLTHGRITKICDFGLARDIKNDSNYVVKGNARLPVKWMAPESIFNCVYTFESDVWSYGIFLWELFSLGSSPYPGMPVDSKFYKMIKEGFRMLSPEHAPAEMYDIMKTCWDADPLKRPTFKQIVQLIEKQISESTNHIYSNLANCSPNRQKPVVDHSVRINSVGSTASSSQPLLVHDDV

IC50 (Table 2)	IC50 (Table 1)	SMILES
1310 nM		Cc1ccc2ncc(C(=O)Nc3cc(-c4noc([C@@H]5CCN5)n4)ccc3C)n2c1 [F280]
1880 nM		Cc1ccc(-c2noc(CC3CCNCC3)n2)cc1NC(=O)c1cnc2ccccn12 [F289]
578 nM		Cc1ccc(-c2noc(CN3CCOC3=O)n2)cc1NC(=O)c1cnc2ccccn12 [F142]
1230 nM		CC(=O)N1CCOC[C@H]1c1nc(-c2ccc(C)c(NC(=O)c3cnc4ccccn34)c2)no1 [F275]
148 nM		Cc1ccc(-c2noc([C@H]3CCCN(S(C)(=O)=O)C3)n2)cc1NC(=O)c1cnc2ccccn12 [F209]
543 nM		Cc1ccc(-c2noc([C@@H]3CCN3)n2)cc1NC(=O)c1cnc2ccccn12 [F136]
	49 nM	Cc1ccc(-c2nc(N3CCC3)no2)cc1NC(=O)c1cnc2ccccn12 [F1]
	64 nM	COC(=O)N1CC(c2nc(-c3ccc(C)c(NC(=O)c4cnc5ccc(CCC#N)cn45)c3)no2)C1 [F64, methyl 3-(3-(3-(6-(2-cyanoethyl)imidazo[1,2-a]pyridine-3-carboxamido)-4-methylphenyl)-1,2,4-oxadiazol-5-yl)azetidine-1-carboxylate]
519 nM		Cc1ccc(-c2noc(C[C@@H]3CCCN3)n2)cc1NC(=O)c1cnc2ccccn12 [F216]
	92 nM	Cc1ccc(-c2noc(C[C@@H]3CCCN3S(C)(=O)=O)n2)cc1NC(=O)c1cnc2ccccn12 [F41]
517 nM		COCCOC(=O)N1CC(c2nc(-c3ccc(C)c(NC(=O)c4cnc5ccccn45)c3)no2)C1 [F127]
215 nM		Cc1ccc(-c2noc(C3CCCCN3)n2)cc1NC(=O)c1cnc2ccccn12 (centres unmarked) [F109]
454 nM		Cc1ccc(-c2noc(C(NC(=O)OC(C)(C)C)C3COC3)n2)cc1NC(=O)c1cnc2ccccn12 (centres unmarked) [F183]
122 nM		COC(=O)N1CC(F)(F)C[C@H]1c1nc(-c2ccc(C)c(NC(=O)c3cnc4ccccn34)c2)no1 [F172]
205 nM		Cc1ccc2ncc(C(=O)Nc3cc(-c4noc(COC5COC5)n4)ccc3C)n2c1 [F260]
738 nM		CC(=O)N1CC[C@H]1c1nc(-c2ccc(C)c(NC(=O)c3cnc4ccccn34)c2)no1 [F152]
178 nM		COC(=O)N1CC(c2nc(-c3ccc(C)c(NC(=O)c4cnc5ccc(C(C)=O)cn45)c3)no2)C1 [F245]
103 nM		COC(=O)N1CC(c2nc(-c3ccc(C)c(NC(=O)c4cnc5ccc(C#N)cn45)c3)no2)C1 [F236]
623 nM		Cc1ccc(-c2noc(C3CN(C(=O)OC(C)(C)C)C3)n2)cc1NC(=O)c1cnc2ccccn12 [F113]
851 nM		Cn1ccc(S(=O)(=O)N2CC(c3nc(-c4ccc(F)c(NC(=O)c5cnc6ccccn56)c4)no3)C2)n1 [F221]

The next lines start with the compound.

SMILES	IC50 (Table 2)	IC50 (Table 1)
Cc1ccc(-c2noc([C@@H]3CCN3C(=O)OC3(C)CC3)n2)cc1NC(=O)c1cnc2ccccn12 [F202]	208 nM	
Cc1ccc(-c2noc(C3CNCCO3)n2)cc1NC(=O)c1cnc2ccccn12 (centres unmarked) [F188]	399 nM	
COC(=O)N1CCC(c2nc(-c3ccc(C)c(NC(=O)c4cnc5ccccn45)c3)no2)C1 (centres unmarked) [F169]	132 nM	
Cc1ccc(-c2noc([C@H]3COCCN3C(=O)OC(C)(C)C)n2)cc1NC(=O)c1cnc2ccccn12 [F117]	629 nM	
COC(=O)N1CC(c2nc(-c3ccc(C)c(NC(=O)c4cnc5cc(C(F)(F)F)ccn45)c3)no2)C1 [F238]	130 nM	
Cc1ccc(-c2noc([C@@H]3CCCN3)n2)cc1NC(=O)c1cnc2ccccn12 [F190]	476 nM	
Cc1ccc(-c2noc(C[C@@H]3CCCN3C(=O)OC(C)(C)C)n2)cc1NC(=O)c1cnc2ccccn12 [F211]	106 nM	
Cc1ccc(-c2noc([C@H]3COCCN3S(C)(=O)=O)n2)cc1NC(=O)c1cnc2ccccn12 [F167]	102 nM	
Cc1ccc(-c2noc([C@H]3CNCCO3)n2)cc1NC(=O)c1cnc2ccccn12 [F189]	824 nM	
Cc1ccc(-c2noc([C@@H]3COCCN3C(=O)OC(C)(C)C)n2)cc1NC(=O)c1cnc2ccccn12 [F116]	792 nM	
Cc1ccc(-c2noc(C3CCCN3C(=O)OC(C)(C)C)n2)cc1NC(=O)c1cnc2ccccn12 (centres unmarked) [F106]	935 nM	
COCCCN1CC(c2nc(-c3ccc(C)c(NC(=O)c4cnc5ccccn45)c3)no2)C1 [F225]	239 nM	
Cc1ccc(-c2noc([C@@H]3CCCC(=O)N3)n2)cc1NC(=O)c1cnc2ccccn12 [F119]	434 nM	
Cc1ccn2c(C(=O)Nc3cc(-c4noc(N5CCCC(C(F)(F)F)C5)n4)ccc3C)cnc2c1 (centres unmarked) [F93]		48 nM
Cc1ccc(-c2noc(C3CN(S(=O)(=O)C(F)F)C3)n2)cc1NC(=O)c1cnc2ccccn12 [F43]		24 nM
Cc1ccc2ncc(C(=O)Nc3cc(-c4noc(COC5CNC5)n4)ccc3C)n2c1 [F293]	2150 nM	
COC(=O)N1CCC[C@H](c2nc(-c3ccc(C)c(NC(=O)c4cnc5ccccn45)c3)no2)C1 [F208]	134 nM	
Cc1nc(C)c(-c2ccc3ncc(C(=O)Nc4cc(-c5noc(CN6CC(C#N)C6)n5)ccc4C)n3c2)s1 [F99]		49 nM

SMILES	IC50 (Table 2)	IC50 (Table 1)
Cc1ccc(-c2noc(C3CCN(C(=O)OC(C)(C)C)CC3)n2)cc1NC(=O)c1cnc2ccccn12 [F105]	505 nM	
Cc1ccc(-c2noc(CNC(=O)N3CCOCC3)n2)cc1NC(=O)c1cnc2ccccn12 [F292]	1930 nM	
Cc1ccc(-c2nc(N3CCC(F)(F)CC3)no2)cc1NC(=O)c1cnc2ccccn12 [F4]		35 nM
COC(=O)N1CCOC(c2nc(-c3ccc(C)c(NC(=O)c4cnc5ccccn45)c3)no2)C1 (centres unmarked) [F194]	105 nM	
Cc1ccc(-c2noc([C@@H](C)N3CCC(F)(F)C3)n2)cc1NC(=O)c1cnc2ccccn12 [F227]	119 nM	
Cc1ccc(-c2noc([C@H]3CCC(F)(F)CO3)n2)cc1NC(=O)c1cnc2ccccn12 [F12]		32 nM
COC(=O)N1CC(c2nc(-c3ccc(F)c(NC(=O)c4cnc5ccccn45)c3)no2)C1 [F201]	443 nM	
Cc1ccc(-c2noc(C3CN(c4cnccn4)C3)n2)cc1NC(=O)c1cnc2ccccn12 [F243]	310 nM	
Cc1ccc(-c2noc([C@@H]3CCCNC3)n2)cc1NC(=O)c1cnc2ccccn12 [F203]	826 nM	
CC(C)(C)OC(=O)N1CC(c2nc(-c3ccc(F)c(NC(=O)c4cnc5ccccn45)c3)no2)C1 [F27, tert-butyl 3-(3-(4-fluoro-3-(imidazo[1,2-a]pyridine-3-carboxamido)phenyl)-1,2,4-oxadiazol-5-yl)azetidine-1-carboxylate]		997 nM
CC(=O)N1CCC(c2nc(-c3ccc(C)c(NC(=O)c4cnc5ccccn45)c3)no2)CC1 [F193]	354 nM	
Cc1ccc(-c2noc(C3CCN(S(C)(=O)=O)C3)n2)cc1NC(=O)c1cnc2ccccn12 (centres unmarked) [F170]	137 nM	
COC1CN(Cc2nc(-c3ccc(C)c(NC(=O)c4cnc5ccccn45)c3)no2)C1 [F132]	283 nM	
COC(=O)N1CC(c2nc(-c3ccc(C)c(NC(=O)c4cnc5ccccn45)c3C)no2)C1 [F249]	426 nM	
COC(=O)N1CC(c2nc(-c3ccc(C)c(NC(=O)c4cnc5ccc(COCC(F)(F)F)cn45)c3)no2)C1 [F84]		38 nM
Cc1ccc(-c2noc([C@H]3CCCN(C(=O)OC(C)(C)C)C3)n2)cc1NC(=O)c1cnc2ccccn12 [F187]	320 nM	
Cc1ccc(-c2noc([C@@H]3CCN3C(=O)OC(C)(C)C)n2)cc1NC(=O)c1cnc2ccccn12 [F24]		80 nM
Cc1ccc(-c2noc(C[C@H]3CCN(C(=O)OC(C)(C)C)C3)n2)cc1NC(=O)c1cnc2ccccn12 [F185]	452 nM	
